Here are results for two molecules from BindingDB's records for doi:10.1124/jpet.103.052852 (Eli Lilly, 2003).

For assay [1], the target named is T1, Oxysterols receptor LXR-beta (Homo sapiens, UniProt P55055).
T1 sequence (P55055 whole entry): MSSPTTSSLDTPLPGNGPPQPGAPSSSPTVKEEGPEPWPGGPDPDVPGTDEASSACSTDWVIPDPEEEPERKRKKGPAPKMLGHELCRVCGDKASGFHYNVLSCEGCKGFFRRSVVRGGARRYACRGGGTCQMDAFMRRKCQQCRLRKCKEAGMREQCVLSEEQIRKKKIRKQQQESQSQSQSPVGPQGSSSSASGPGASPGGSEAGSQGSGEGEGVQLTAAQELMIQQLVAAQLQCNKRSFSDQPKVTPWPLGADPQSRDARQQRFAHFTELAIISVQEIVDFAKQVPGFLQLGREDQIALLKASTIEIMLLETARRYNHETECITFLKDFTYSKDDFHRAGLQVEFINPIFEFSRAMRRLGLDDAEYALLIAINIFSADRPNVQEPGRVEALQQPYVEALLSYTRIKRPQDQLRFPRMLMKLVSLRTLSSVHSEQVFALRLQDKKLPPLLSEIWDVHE

Assay [2] concerns the target T2, Oxysterols receptor LXR-alpha (Homo sapiens, UniProt Q13133).
T2 sequence (Q13133 whole entry): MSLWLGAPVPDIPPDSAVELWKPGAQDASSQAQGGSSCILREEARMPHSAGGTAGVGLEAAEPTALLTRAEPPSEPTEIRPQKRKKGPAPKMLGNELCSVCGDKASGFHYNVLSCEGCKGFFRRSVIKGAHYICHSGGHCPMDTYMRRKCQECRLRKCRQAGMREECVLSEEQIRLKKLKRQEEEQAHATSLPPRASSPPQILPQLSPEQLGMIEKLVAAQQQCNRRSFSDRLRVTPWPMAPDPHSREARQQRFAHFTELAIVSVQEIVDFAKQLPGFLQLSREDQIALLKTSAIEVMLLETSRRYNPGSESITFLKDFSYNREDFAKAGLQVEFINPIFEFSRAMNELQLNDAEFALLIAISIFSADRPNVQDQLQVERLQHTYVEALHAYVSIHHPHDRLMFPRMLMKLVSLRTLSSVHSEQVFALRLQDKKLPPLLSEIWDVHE

In general, Ki refers to the dissociation constant of the complex between target and ligand, obtained from inhibition or displacement.

For the molecule `CC(C)CC[C@H](O)[C@@H](C)[C@H]1CC[C@H]2[C@@H]3CC=C4C[C@@H](O)CC[C@]4(C)[C@H]3CC[C@]12C` [(1S,2R,5S,10S,11S,14R,15S)-14-[(2S,3S)-3-hydroxy-6-methylheptan-2-yl]-2,15-dimethyltetracyclo[8.7.0.0^{2,7}.0^{11,15}]heptadec-7-en-5-ol], the inhibitory constant (Ki) came out at 490 nM in assay [1] and 250 nM in assay [2].
In assay [1], `CC(C)(O)C1OC2CCC3(C)C(O)(CCC4Cc5c([nH]c6ccccc56)C43C)C2=CC1=O` (stereo not drawn) [CAS_57186-25-1] came in with an inhibition constant (Ki) of 1100 nM.
